Read-outs that look alike come from different tables or passages of the source.
Legend:
CYP2A13 = target: T1, CYP2A13 (Homo sapiens, UniProt Q16696); experiment: CYP2A13 inhibition, coumarin to 7-hydroxy-coumarin (Umbelliferone) fluorescence assay in microsomes
T1 sequence (Q16696 1-494): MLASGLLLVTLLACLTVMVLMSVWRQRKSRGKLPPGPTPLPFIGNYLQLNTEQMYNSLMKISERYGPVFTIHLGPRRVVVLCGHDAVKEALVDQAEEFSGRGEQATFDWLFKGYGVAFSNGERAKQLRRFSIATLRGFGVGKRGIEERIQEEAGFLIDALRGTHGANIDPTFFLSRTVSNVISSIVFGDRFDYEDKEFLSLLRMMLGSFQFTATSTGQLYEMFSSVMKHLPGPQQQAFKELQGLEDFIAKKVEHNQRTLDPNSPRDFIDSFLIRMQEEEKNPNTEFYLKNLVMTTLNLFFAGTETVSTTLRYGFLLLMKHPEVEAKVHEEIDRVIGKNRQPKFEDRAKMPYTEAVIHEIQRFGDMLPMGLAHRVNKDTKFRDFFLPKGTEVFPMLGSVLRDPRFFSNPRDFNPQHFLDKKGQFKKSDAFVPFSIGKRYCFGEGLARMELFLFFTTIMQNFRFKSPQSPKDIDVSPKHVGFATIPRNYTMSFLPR
Experimental: Compounds that inhibit the activity of CYP2A13 are identified by using a standard reaction established for the enzyme. A known substrate is coumarin, and the product of the enzymatic reaction is 7-hydroxy-coumarin (Umbelliferone) which is strongly fluorescent. When a compound is added to the standard reaction and the formation of Umbelliferone is decreased, the compound is identified as an inhibitor, which can also be a competitive substrate of the enzyme. The compound is used at various concentrations and the concentration-dependent decrease in Umbelliferone formation allows to determine the concentration where the activity of the enzyme is reduced to the 50% level (IC50 value).
A test compound (details see Table 1) was incubated with CYP2A13 in the presence of a cytochrome P450 reductase. CYP2A13 and P450 reductase were employed in form of microsomes. […] Preferably, the two enzymes are coexpressed in the same insect cells and microsomes prepared which contain both enzymes. […] An MOI of 4 for recombinant CYP2A13 baculovirus combined with an MOI of 3.5 for recombinant P450 reductase baculovirus routinely produced microsomes with considerable activity.
Microsomes were used which contained 7 pmoles CYP2A13. […] The concentration of the standard substrate coumarin was 0.006 mM. […] The mixture was incubated for 10 min at 37° C. prior to the initiation of the enzymatic reaction by the addition of 0.005 ml of a solution of 50 mM NADPH in water. The final total volume was 0.2 ml, which is suitable for microtiter plate measurements. The samples were incubated for 60 min at 37° C. After 60 min, the enzymatic reaction was stopped by the addition of 0.02 ml cold 50% trichloroacetic acid (TCA) and incubated at 4° C. for 15 min. 0.005 ml of a solution of 50 mM NADPH in water was added to the control reaction which corresponds to the reaction without test compound and without NADPH, and as a consequence, no Umbelliferone was formed. Denatured proteins and other insoluble parts were separated by centrifugation (10 min, 560×g, room-temperature).
The samples were analysed spectrofluorometrically which allows to detect the formation of Umbelliferone as the enzymatic product of coumarin at an excitation wavelength of 340 nm and an emission wavelength of 480 nm.

CYP2A6 = target: T2, CYP2A6 (Homo sapiens, UniProt P11509); experiment: CYP2A6 inhibition, coumarin to Umbelliferone fluorescence assay in microsomes; format: biochemical; details: substrate coumarin 0.003 mM, 60 min at 37° C.; read-out: CYP2A6 inhibitor activity IC50
T2 construct: purchased BD Biosciences Gentest, USA
T2 sequence (P11509 1-494): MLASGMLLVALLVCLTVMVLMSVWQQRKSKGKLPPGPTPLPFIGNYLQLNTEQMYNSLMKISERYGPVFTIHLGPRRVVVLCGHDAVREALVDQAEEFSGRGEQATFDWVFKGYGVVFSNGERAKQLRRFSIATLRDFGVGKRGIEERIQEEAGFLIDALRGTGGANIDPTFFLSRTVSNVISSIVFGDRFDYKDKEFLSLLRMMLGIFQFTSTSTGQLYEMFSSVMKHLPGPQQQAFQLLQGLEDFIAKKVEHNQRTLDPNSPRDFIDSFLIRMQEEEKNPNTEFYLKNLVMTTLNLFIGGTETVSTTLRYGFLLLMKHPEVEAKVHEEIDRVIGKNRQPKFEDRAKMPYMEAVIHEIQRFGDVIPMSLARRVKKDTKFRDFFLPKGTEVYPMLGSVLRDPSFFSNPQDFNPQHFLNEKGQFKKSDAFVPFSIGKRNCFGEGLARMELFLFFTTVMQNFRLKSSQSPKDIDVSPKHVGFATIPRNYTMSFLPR
Experimental: Test compounds that inhibit the activity of CYP2A6 are identified by using the same principle as described in Example 28, first paragraph.
A test compound (details see list below) was incubated with CYP2A6 in the presence of a cytochrome P450 reductase. CYP2A6 and P450 reductase were employed in form of microsomes (BD Biosciences Gentest, USA). Microsomes were used which contained 2 pmoles CYP2A6 and an amount of NADPH-P450 reductase corresponding to cytochrome c reductase activity of 87 nmole/(min×mg protein). […] The concentration of the standard substrate coumarin was 0.003 mM.
The samples were analysed spectrofluorometrically according to the procedure described in Example 28.

Human CYP2B6 = target: T3, Human CYP2B6 (Homo sapiens, UniProt P20813); experiment: Inhibition of human CYP2B6, 7-ethoxy-4-trifluoromethyl-coumarin fluorescence assay in microsomes; format: biochemical; details: substrate 7-ethoxy-4-trifluoromethyl-coumarin 6 μM, 40 min at 37° C.; read-out: CYP2B6 inhibitor activity IC50
T3 construct: made in house; host or cells: Sf9 insect cells, recombinant baculoviruses (coexpression)
T3 sequence (P20813 1-491): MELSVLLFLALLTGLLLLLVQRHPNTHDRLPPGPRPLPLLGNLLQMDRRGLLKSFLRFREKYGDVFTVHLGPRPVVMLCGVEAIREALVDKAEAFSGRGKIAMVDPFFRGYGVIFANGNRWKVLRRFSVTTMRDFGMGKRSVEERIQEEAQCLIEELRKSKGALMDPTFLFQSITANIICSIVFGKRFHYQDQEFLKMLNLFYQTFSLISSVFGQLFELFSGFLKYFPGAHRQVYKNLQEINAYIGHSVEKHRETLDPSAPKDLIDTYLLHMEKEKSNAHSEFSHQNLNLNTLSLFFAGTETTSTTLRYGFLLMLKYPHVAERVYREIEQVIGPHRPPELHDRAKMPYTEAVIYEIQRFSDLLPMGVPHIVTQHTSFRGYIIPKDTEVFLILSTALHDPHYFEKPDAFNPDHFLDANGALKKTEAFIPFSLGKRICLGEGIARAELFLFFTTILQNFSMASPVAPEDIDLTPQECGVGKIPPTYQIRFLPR
Experimental: Test compounds that inhibit the activity of CYP2B6 are identified by using the same principle as described in Example 28, first paragraph.
A test compound (details see Table 3) was incubated with CYP2B6 in the presence of a cytochrome P450 reductase. CYP2B6 and P450 reductase are produced using recombinant baculoviruses and co-expressing the two proteins in Sf9 insect cells as described in Example 28. Alternatively, microsomes containing CYP2B6 and the reductase are commercially available (BD Biosciences Gentest, USA). Microsomes were used which contained 1.5 pmoles CYP2B6. Potassium phosphate buffer final concentration was 100 mM, (1M stock, pH 7.4). […] The concentration of the standard substrate 7-ethoxy-4-trifluoromethyl-coumarin was 6 μM. […] The samples were incubated for 40 min at 37° C.

[1] = read-out: CYP2A13 inhibitor activity IC50, substrate coumarin 0.006 mM, 60 min at 37° C.

Row | Structure (SMILES) | IC50 (CYP2A13) [µM] | other results
1 | CCCCCCC1CCC(=O)O1 (stereo not drawn) [Compound ID 47, 5-hexyldihydrofuran-2(3H)-one] | 7.2 | 
2 | O=C1CCCCCCCCCCN1 [Compound ID 65, azacyclododecan-2-one] | 15.6 | 
3 | CCCCCCN1C(=O)CCC1C (stereo not drawn) [Compound ID 48] | 7.4 | 
4 | O=C1CCCCCCCCCCCN1 [Compound ID 36, azacyclotridecan-2-one] | 5.2 | 
5 | CC/C=C\CC1=C(C)CCC1=O [Compound ID 10, (Z)-3-methyl-2-(pent-2-enyl)cyclopent-2-enone] | 1.6 | IC50 (CYP2A6): 54 µM
6 | C=CCCCCCc1cnccn1 [Compound ID 57, 2-(hept-6-enyl)pyrazine] | 10.2 | IC50 (Human CYP2B6): 0.6 µM
7 | CCCCC/C=C/CC1CCCC1=O (stereo not drawn) [Compound ID 18, (E)-2-(oct-2-enyl)cyclopentanone] | 2.8 | 
8 | CC/C=C/CCn1ccnc1 [Compound ID 46, (E)-1-(hex-3-enyl)-1H-imidazole] |  | IC50 (CYP2A13; [1]): 6.8 µM
9 | CCCCCCC1(C)CCC(=O)O1 (stereo not drawn) [Compound ID 31, 5-hexyl-5-methyldihydrofuran-2(3H)-one] | 4.6 | 
10 | CCCCCC1=CCCC1=O [Compound ID 51, 2-pentylcyclopent-2-enone] | 8.3 | 
11 | CC(C)=CCn1ccnc1 [Compound ID 40, 1-(3-methylbut-2-enyl)-1H-imidazole] |  | IC50 (CYP2A13; [1]): 5.7 µM
12 | N#CCCCCn1ccnc1 [Compound ID 55, 5-(1H-imidazol-1-yl)pentanenitrile] | 9.5 | 
13 | OCCCCn1ccnc1 [Compound ID 68, 4-(1H-imidazol-1-yl)butan-1-ol] | 16.1 | 
14 | CCCCCN1C(=O)CC[C@H]1C(=O)OCC [Compound ID 19] | 3 | 
15 | c1nc2c(o1)CCCCCCCCC2 [Compound ID 14, 5,6,7,8,9,10,11,12-octahydro-4H-cycloundeca[d]oxazole] | 2 | 
16 | CC/C=C/CC1=C(CC(=O)OC)CCC1=O [Compound ID 52] | 8.3 | 
17 | CCCCC1CCC(=O)O1 (stereo not drawn) [Compound ID 63, 5-butyldihydrofuran-2(3H)-one] | 15.1 | 

Row | Structure (SMILES) | IC50 (CYP2A13) [µM] | other results
18 | CCCCC1OC(=O)CC1C (stereo not drawn) [Compound ID 11, 4-methyl-5-butyldihydrofuran-2(3H)-one] | 1.6 | IC50 (CYP2A6): 56 µM
19 | c1nc2c(o1)CCCCCC2 [Compound ID 60, 4,5,6,7,8,9-hexahydrocycloocta[d]oxazole] | 11.4 | 
20 | CCCCCCC1=C(C)CCC1=O [Compound ID 3, 2-hexyl-3-methylcyclopent-2-enone] | 0.4 | IC50 (CYP2A6): 13 µM
21 | CCCCCC1C(=O)C(C)CC1C(=O)OC (stereo not drawn) [Compound ID 50, Methyl 4-methyl-3-oxo-2-pentylcyclopentanecarboxylate] | 7.8 | 
22 | c1nc2c([nH]1)CCCCCCCCC2 [Compound ID 35, 1,4,5,6,7,8,9,10,11,12-decahydrocycloundeca[d]imidazole] | 5 | 
23 | CCC1CCC2(CCC(=O)O2)CC1 (stereo not drawn) [Compound ID 29, 8-ethyl-1-oxaspiro[4.5]decan-2-one] | 4.3 | 
24 | CCCCCC1C(=O)CCC1CC(=O)OC (stereo not drawn) [Compound ID 37, methyl 2-(3-oxo-2-pentylcyclopentyl)acetate] | 5.2 | 
25 | CC/C=C\CCOC(=O)C1CCCC1=O (stereo not drawn) [Compound ID 61] | 12.7 | 
26 | c1cnc2c(n1)CCCCCCCCCC2 [Compound ID 42, 5,6,7,8,9,10,11,12,13,14-decahydrocyclododeca[b]pyrazine] | 6.1 | 
27 | CC/C=C\C[C@@H]1C(=O)CC[C@@H]1CC(=O)OC [Compound ID 25, (Z)-methyl 2-(3-oxo-2-(pent-2-enyl)cyclopentyl)acetate] | 3.5 | 
28 | CC/C=C\CC1CCCC(=O)O1 (stereo not drawn) [Compound ID 22, (Z)-6-(pent-2-enyl)tetrahydro-2H-pyran-2-one] | 3.3 | 
29 | CC/C=C\CC1C(=O)CCC1C (stereo not drawn) [Compound ID 17] | 2.8 | 
30 | c1nnc2n1CCCCCCCCCCC2 [Compound ID 43, 6,7,8,9,10,11,12,13,14,15-decahydro-5H-[1,2,4]triazolo[4,3-a][1]azacyclotridecine] | 6.3 | 
31 | CC(C)CCn1ccnc1 [Compound ID 39, 1-isopentyl-1H-imidazole] |  | IC50 (CYP2A13; [1]): 5.6 µM
32 | c1cnc2c(c1)CCCCCCCCCC2 [Compound ID 24, 5,6,7,8,9,10,11,12,13,14-decahydrocyclododeca[b]pyridine] | 3.5 | 
33 | CCCCCC1=C(C)CCC1=O [Compound ID 7, 2-pentyl-3-methylcyclopent-2-enone] | 1.2 | 
34 | c1cn2c(n1)CCCCCCCCCC2 [Compound ID 53, 5,6,7,8,9,10,11,12,13,14-decahydroimidazo[1,2-a][1]azacyclododecine] | 8.5 | 

Further lines, with some results ahead:

Row | IC50 (CYP2A13) [µM] | Structure (SMILES) | other results
35 | 6.6 | O=C1CCC2CCCCC2O1 (stereo not drawn) [Compound ID 45, octahydrocoumarin] | 
36 | 4.8 | CCCCCC1C(=O)CCC1C (stereo not drawn) [Compound ID 32, 3-methyl-2-pentylcyclopentanone] | 
37 | 14.6 | c1cn2c(n1)CCCCCCCCCCC2 [Compound ID 64, 6,7,8,9,10,11,12,13,14,15-decahydro-5H-imidazo[1,2-a][1]azacyclotridecine] | 
38 | 1.7 | CCCCCC1OC(=O)CC1C (stereo not drawn) [Compound ID 12, 4-methyl-5-pentyldihydrofuran-2(3H)-one] | 
39 | 17.6 | CC1CCC2(CCC(=O)O2)CC1 (stereo not drawn) [Compound ID 69, 8-methyl-1-oxaspiro[4.5]decan-2-one] | 
40 | 3.7 | c1ncc2c(n1)CCCCCCCC2 [Compound ID 26, 5,6,7,8,9,10,11,12-octahydrocyclodeca[d]pyrimidine] | 
41 | 4.5 | CCCCCCC1=CCCC1=O [Compound ID 30, 2-hexylcyclopent-2-enone] | 
42 | 4.2 | CCCCCn1ccnc1 [Compound ID 28, 1-pentyl-1H-imidazole] | IC50 (CYP2A6): 2 µM
43 | 9.4 | CC/C=C\Cn1ccnc1 [Compound ID 54, (Z)-1-(pent-2-enyl)-1H-imidazole] | IC50 (CYP2A6): 7 µM
44 | 7.7 | CCOC(=O)CCCn1ccnc1 [Compound ID 49, ethyl 4-(1H-imidazol-1-yl)butanoate] | 
45 | 1.4 | CCCCCC12CC1(C)CCC2=O (stereo not drawn) [Compound ID 8] | 
46 | 11.5 | c1nc2c([nH]1)CCCCCCCCCC2 [Compound ID 59, 4,5,6,7,8,9,10,11,12,13-decahydro-1H-cyclododeca[d]imidazole] | 
47 | 12.5 | CCC=CCCC1(C)CCC(=O)O1 (mixture of isomers) [Compound ID 62, (E/Z)-5-(hex-3-enyl)-5-methyldihydrofuran-2(3H)-one] | 
48 | 4.2 | CCCCCCC1CCCC1=O (stereo not drawn) [Compound ID 27, 2-hexylcyclopentanone] | 
